Results on three compounds are retold here after PMC3524419 (ChemMedChem, 2012).

Each structure is given as a SMILES string.

The assay has as its target T1, COX-1 (ovine) (Ovis aries, UniProt P05979).
T1 sequence (P05979 25-600): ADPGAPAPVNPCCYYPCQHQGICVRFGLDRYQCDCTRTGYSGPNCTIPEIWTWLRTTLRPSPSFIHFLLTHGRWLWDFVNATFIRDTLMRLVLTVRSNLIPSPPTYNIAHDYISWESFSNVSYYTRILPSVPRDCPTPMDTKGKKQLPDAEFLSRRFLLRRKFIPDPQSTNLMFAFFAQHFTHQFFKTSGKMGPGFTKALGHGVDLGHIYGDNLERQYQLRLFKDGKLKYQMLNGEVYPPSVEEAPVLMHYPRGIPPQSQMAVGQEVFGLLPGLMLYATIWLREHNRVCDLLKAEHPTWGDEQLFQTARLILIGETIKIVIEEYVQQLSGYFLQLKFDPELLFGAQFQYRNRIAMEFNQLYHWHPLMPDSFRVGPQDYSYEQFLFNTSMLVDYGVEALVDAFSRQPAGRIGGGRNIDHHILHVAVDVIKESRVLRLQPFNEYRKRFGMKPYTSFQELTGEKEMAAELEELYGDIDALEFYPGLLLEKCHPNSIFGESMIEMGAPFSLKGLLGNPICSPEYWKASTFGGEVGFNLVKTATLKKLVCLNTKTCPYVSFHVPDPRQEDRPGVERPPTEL
In words: 12-HHT formation from arachidonic acid, HPLC. The class given is biochemical.
By IC50 is commonly meant the concentration needed to halve the response being measured. Read a low IC50 as greater potency in that assay. Compound `CCCCCC(=O)Cc1cc(O)cc(O)c1C(=O)Oc1cc(O)c(C(=O)O)c(CCCCC)c1` [compound 9, olivetoric acid] came in with an IC50 greater than 30 µM.

For the compound `CCCCCC(=O)Cc1cc(O)cc2c1C(=O)Oc1cc(O)c(C(=O)O)c(CCCCC)c1O2` [compound 2, physodic acid], the IC50 was greater than 30 µM.

`CCCCCc1cc(OC(=O)c2c(O)cc(OC)cc2CCCCC)cc(O)c1C(=O)O` [compound 8, perlatolic acid] had an IC50 greater than 30 µM.
